Literature values, collected in patent US20220279780A1, “AGRICULTURAL FORMULATION” (ISHIHARA SANGYO KAISHA, LTD., priority 2019, published 2022).

## N#CCNC(=O)c1cnccc1C(F)(F)F [flonicamid]
  water solubility: 5,200 ppm
